Assays:
[1] = tested on: MPTP-treated squirrel monkeys; assay: food grasping test in MPTP-treated squirrel monkeys; assay type: in vivo; settings: GM1 30 mg/kg/day i.m., investigation end
Description: Tests on squirrel monkeys, which concerned simple motor functions (e.g. capability of grasping food placed in deep containers), were intended to determine the response time and evaluate limb functional use. In particular, monkeys were trained to grasp raisins from a Plexiglas platform accommodating 9.5 mm dia. wells. The time taken to start grasping and the number of raisins grasped in a 6-minute time limit were recorded. All the aforesaid tests were carried out before the first meal of the day.
Normal monkeys started response on sighting the food container.
Normal squirrel monkeys succeeded in grasping 100% food. Soon after MPTP administration, all monkeys were endangered and grasped approx. 15% food. Within the third week of treatment, the monkeys treated with GM1—compared with those treated with saline solution—grasped a higher amount of food. At the investigation end, the former grasped 100% food whereas the latter grasped only 25% food (*p<0.05).

[2] = tested on: MPTP-treated cynomolgus monkeys; assay: object grasping test in MPTP-treated cynomolgus monkeys; assay type: in vivo; settings: GM1 15 mg/kg/day i.m., investigation end
Description: The behaviour and neurologic functions of cynomolgus monkeys were also tested. Said monkeys were also trained to grasp an object, which has proven to be indicative of the motor and cognitive functions of MPTP-treated monkeys (Taylor J. R. et al., Brain, 113, 617, 1990).
The grasping test was carried out according to Diamond A.: “The development and neural bases of higher cognitive functions”, Annals of the New York Academy of Sciences, vol. 608, A. Diamond Ed. (The New York Academy of Sciences, New York, 637-676, 1990).
Briefly, monkeys were trained to stretch their arm out of their cage to grasp food (raisins or apple) from a Plexiglas box (15 cm×15 cm×5 cm), open on one side and fastened to a platform allowing side movement and rotation.
The box open side could happen to be in front of, on the left or on the right side of the monkey. Each experiment consisted of 30 tests. The following events were recorded: successful arm stretchings (food grasped at the first attempt), correct stretchings (food grasped after various attempts), and “barrier” stretchings (i.e. towards the closed side of the box rather than-around the box until reaching the open side of same). Should no food be grasped within 5 minutes, the test was judged to be without response.
FIG. 2 illustrates the effects produced by MPTP and GM1 on cynomolgus monkeys in the “object grasping” test. […]

[3] = tested on: MPTP-treated squirrel monkeys; assay: motor behaviour rating of MPTP-treated squirrel monkeys; assay type: in vivo
Description: In vivo experiments with GM1 were carried out on 15 (male or female) squirrel monkeys and 4 cynomolgus monkeys.
The monkeys were administered MPTP saline solution after being anaesthesized i.m. with ketamine HCl 5 mg/kg, as follows:
2 mg/kg/dose, i.m. (squirrel monkeys).
MPTP was administered every third day until complete manifestation of parkinsonian motor symptomatology was obtained, i.e. akinesia, lack of responsiveness to stimulation, inability to climb, to feed autonomously, and to groom. Thirty points min. (as will be defined in the explanation of FIG. 1) had to be obtained during the 48-60 hours following the last MPTP administration; then animals in pairs were subdivided at random into two treatment groups, i.e. treatment with GM1 or with saline solution. […]
In particular, the following functions were recorded: overall activity, ability to climb, locomotion/gait, upper and lower limb movements, detailed motor ability, bradykinesia/akinesia, dyskinesia/dystonia, carriage, tremor, balance, grooming ability, sudden immobility during movements, and ability to feed. […]
FIGS. 1 and 2 are now being considered in detail. […] Columns represent the average points (±S.D.); normal point is 0, MPTP points are the points recorded after the last MPTP injection but prior to the administration of associated GM1-saline solution. […]

[4] = tested on: mesencephalic dopaminergic neurons; assay: TOPA neurotoxicity in mesencephalic dopaminergic neuron cultures, TH immunofluorescence; assay type: cell-based, rat; settings: for TH+ cells (% control): counted 24 h later, mean ± S.E.M.
Description: Mesencephalic neuron cultures were prepared according to Dal Toso et al. (Dal Toso et al.: “Development and survival of neurons in dissociated fetal mesencephalic serum-free cell cultures: I. Effects of cell density and of an adult mammalian striatal-derived neuronotrophic factor (SDNF)”, J. Neurosci., 8 (3) 733-745, 1988) from the mesencephalic tegmentum of 14.5-15 days' rat embryos.
Neurons (0.75×10^6) were plated on a poly-L-ornithine substrate in 12-well (25 mm dia. each) clusters.
Cultures were used between the fourth and the sixth day without changing the medium. […]
2-hour pretreatment before acute incubation with TOPA;
cotreatment only with LIGA 20 before acute incubation with TOPA;
pretreatment with/without cotreatment before (100 μM for 2 h) and/or during (100 μM for 24 h) prolonged incubation with TOPA. TOPA cytotoxicity was determined by evaluating cellular survival, and more precisely:
TH immunofluorescence (specific for tyrosine hydroxylase) in mesencephalic dopaminergic neurons, as described by Berger et al. (Berger B. et al.: “Long-term development of mesencephalic dopaminergic neurons of mouse embryos in dissociated primary cultures: morphological and histochemical characteristics”, Neurosci., 7, 193-205, 1982);
Cytotoxicity is expressed as per cent cellular survival.
The results of the two tests (in triplicate) were analysed statistically according to Duncan's test.

Substance: monosialoganglioside [GM1]
- response start time in food grasping test ([1]; p<0.002 vs saline solution): started response almost immediately
- food per cent amount grasped during the test ([1]; saline solution 25%, normal 100%): 100%
- object grasping test performance [2]: fulfilled the task almost perfectly
- motor behaviour at the investigation end ([3]; GM1 30 mg/kg/day i.m., p<0.01 vs saline solution): almost normal behaviour
- recovered motor behaviour ([3]; GM1 chronic i.m. administration, end of 6-8 weeks' investigation, MPTP monkeys, species not separated (FIG. 1)): 86-89%
- number of neurons which survived the TOPA-induced toxic insult ([4]; 10 μM GM1 with 1 ng/ml BDNF, compared with saturation concentration (50 ng/ml) of BDNF alone): not significantly different
- No. of TH+ cells ([4]; 100 μM compound incubated with TOPA 10 μM for 24 h, average ± S.D., control 244 ± 20): 187 ± 10 (b)
- TH+ cells (% control) ([4]; 200 μM GM1 2 h pretreatment, washed, then 100 μM TOPA for 45 minutes): 79.1 ± 4.0 % control
- TH+ cells (% control) ([4]; 200 μM GM1 cotreatment with 100 μM TOPA for 45 minutes, no drug 5.2 ± 1.1): 5.6 ± 0.7 % control
- effect of association with BDNF in protecting against TOPA-induced neurotoxicity ([4]; ganglioside 1-10 μM with BDNF 1 ng/ml): synergic effect
- neuroprotective activity alone against TOPA-induced neurotoxicity ([4]; ganglioside alone at 1-10 μM): no neuroprotective activity of their own
